In PubChem BioAssay AID248 (DTP/NCI, 2004):
Several values for one entry are separate records, joined by “and”; a condition that tells them apart may be missing. Equal values may be shown once. Inconclusive results and toxic doses are left out.

System: L1210 leukemia ip in BDF1 mice, survival T/C
Assay: NCI In Vivo Anticancer Drug Screen. Data for tumor model L1210 Leukemia (intraperitoneal) in B6D2F1 (BDF1) mice
Details: endpoint: mean survival time, higher = longer survival
Summary of the method: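 Tumor was transplanted into mice, which were then dosed with test compound or vehicle alone. Survival was recorded for each group, and the treated figure was expressed relative to the control figure.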

[1] = dose: 100.0 mg/kg/injection, schedule: Q01DX001 (ip), vehicle: carboxymethylcellulose (CMC)
[2] = dose: 200.0 mg/kg/injection, schedule: Q01DX001 (ip), vehicle: carboxymethylcellulose (CMC)
[3] = dose: 400.0 mg/kg/injection, schedule: Q01DX001 (ip), vehicle: carboxymethylcellulose (CMC)
[4] = dose: 50.0 mg/kg/injection, schedule: Q01DX001 (ip), vehicle: carboxymethylcellulose (CMC)
[5] = dose: 100.0 mg/kg/injection, schedule: Q01DX001 (ip), vehicle: other
[6] = dose: 200.0 mg/kg/injection, schedule: Q01DX001 (ip), vehicle: other
[7] = dose: 100.0 mg/kg/injection, schedule: Q01DX001 (ip), vehicle: saline
[8] = dose: 200.0 mg/kg/injection, schedule: Q01DX001 (ip), vehicle: saline
[9] = dose: 400.0 mg/kg/injection, schedule: Q01DX001 (ip), vehicle: saline
[10] = dose: 100.0 mg/kg/injection, schedule: Q04DX003 (ip), vehicle: Klucel (hydroxypropylcellulose) (HPC)
[11] = dose: 200.0 mg/kg/injection, schedule: Q04DX003 (ip), vehicle: Klucel (hydroxypropylcellulose) (HPC)
[12] = dose: 400.0 mg/kg/injection, schedule: Q04DX003 (ip), vehicle: Klucel (hydroxypropylcellulose) (HPC)
[13] = dose: 12.5 mg/kg/injection, schedule: Q04DX003 (ip), vehicle: saline
[14] = dose: 25.0 mg/kg/injection, schedule: Q01DX009 (ip), vehicle: saline
[15] = dose: 25.0 mg/kg/injection, schedule: Q04DX003 (ip), vehicle: saline
[16] = dose: 50.0 mg/kg/injection, schedule: Q01DX001 (ip), vehicle: saline

With `CCC1([N+](=O)[O-])COP(N)(=O)OC1` (stereo not given) the T/C (dose: 5.0 mg/kg/injection, schedule: Q01DX001 (ip), vehicle: saline) was 105 % of control, the T/C (dose: 10.0 mg/kg/injection, schedule: Q01DX001 (ip), vehicle: saline) was 107 % of control and the T/C (dose: 20.0 mg/kg/injection, schedule: Q01DX001 (ip), vehicle: saline) was 124 % of control. For the same compound, the T/C (dose: 40.0 mg/kg/injection, schedule: Q01DX001 (ip), vehicle: saline) was 100 % of control and the T/C (dose: 80.0 mg/kg/injection, schedule: Q01DX001 (ip), vehicle: saline) was 96 % of control.

`Cc1ccc([N+](=O)[O-])cc1NC(=O)c1ccccc1` was tested, and the T/C [1] was 93 % of control, the T/C [2] was 96 % of control and the T/C [3] was 93 % of control.

For `CC1CN1S(=O)(=O)N1CC1C` (stereo not given), the T/C [4] was 111 % of control.

`CCCCCCCCCCCCCCCC(CCCC)C1CCCCC1` (stereo not given) was tested, and the T/C (dose: 100.0 mg/kg/injection, schedule: Q01DX001 (ip), vehicle: saline + alcohol) was 100 % of control, the T/C (dose: 200.0 mg/kg/injection, schedule: Q01DX001 (ip), vehicle: saline + alcohol) was 98 % of control and the T/C (dose: 400.0 mg/kg/injection, schedule: Q01DX001 (ip), vehicle: saline + alcohol) was 96 % of control.

In the case of `NCC1OC(OC2C(CO)OC(OC3C(O)C(N)CC(N)C3OC3OC(CN)C(O)C(O)C3N)C2O)C(N)C(O)C1O` (stereo not given), the T/C (dose: 37.5 mg/kg/injection, schedule: Q01DX001 (ip), vehicle: saline) is reported as 100 % of control, the T/C (dose: 75.0 mg/kg/injection, schedule: Q01DX001 (ip), vehicle: saline) is reported as 105 % of control and the T/C (dose: 150.0 mg/kg/injection, schedule: Q01DX001 (ip), vehicle: saline) is reported as 111 % of control.

For `Cn1c(=O)c2c(nc(OC3CCC=CO3)n2C)n(C)c1=O` (stereo not given), the T/C (dose: 50.0 mg/kg/injection, schedule: Q01DX001 (ip), vehicle: other) was 98 % of control, the T/C [5] was 95 % of control and the T/C [6] was 88 % of control.

For `CC(C)C(O)CC(=O)NN` (stereo not given), the T/C [7] was 98 % of control, the T/C [8] was 110 % of control and the T/C [9] was 102 % of control.

For `Cc1ccc(S(=O)(=O)CCN2CCN(C)CC2)cc1`, the T/C [7] was 100 % of control and the T/C [8] was 94 % of control.

`CC1CP(=O)(Cc2ccccc2)C(C)(c2ccccc2)C1=O` (stereo not given) was tested, and the T/C [10] was 93 % of control, the T/C [11] was 100 % of control and the T/C [12] was 100 % of control.

`O=P(O)(O)CN(CP(=O)(O)O)CP(=O)(O)O` was tested, and the T/C [7] was 101 % of control, the T/C [8] was 94 % of control and the T/C [9] was 89 % of control.

`O=S(=O)(C=C(N1CCCCC1)N1CCCCC1)Cc1ccccc1` was tested, and the T/C (dose: 6.25 mg/kg/injection, schedule: Q01DX009 (ip), vehicle: saline) was 113 % of control, the T/C (dose: 12.5 mg/kg/injection, schedule: Q01DX001 (ip), vehicle: saline) was 100 % of control and the T/C (dose: 12.5 mg/kg/injection, schedule: Q01DX009 (ip), vehicle: saline) was 106 % of control. The T/C [13] was 94 % of control, the T/C (dose: 25.0 mg/kg/injection, schedule: Q01DX001 (ip), vehicle: saline) was 100 % of control and the T/C [14] was 103 % of control. The T/C [15] was 98 % of control, the T/C (dose: 35.0 mg/kg/injection, schedule: Q01DX009 (ip), vehicle: acetone) was 101 % of control and the T/C [16] was 106 % of control.

With `NC(Cc1ccccc1)c1nn[nH]n1` (stereo not given) the T/C (dose: 55.0 mg/kg/injection, schedule: Q01DX Z (ip), vehicle: methylcellulose (MC)) was 93 % of control and the T/C (dose: 83.0 mg/kg/injection, schedule: Q01DX Z (ip), vehicle: methylcellulose (MC)) was 110 % of control.

`Cc1ccc([N+](=O)[O-])cc1NC(=O)COc1ccc(Cl)cc1Cl` was tested, and the T/C (dose: 100.0 mg/kg/injection, schedule: Q01DX009 (ip), vehicle: Klucel (hydroxypropylcellulose) (HPC)) was 96 % of control, the T/C [10] was 95 % of control and the T/C (dose: 200.0 mg/kg/injection, schedule: Q01DX009 (ip), vehicle: Klucel (hydroxypropylcellulose) (HPC)) was 91 % of control. The T/C [11] was 102 % of control, the T/C (dose: 400.0 mg/kg/injection, schedule: Q01DX009 (ip), vehicle: Klucel (hydroxypropylcellulose) (HPC)) was 94 % of control and the T/C [12] was 91 % of control.

`CCOC(=O)CNC(=O)Cn1ccc(=O)[nH]c1=O` was tested, and the T/C [16] was 96 % of control, the T/C [7] was 98 % of control and the T/C [8] was 98 % of control.

With `O=C1c2ccccc2-c2cccc([N+](=O)[O-])c21` the T/C [1] was 97 % of control, the T/C [2] was 92 % of control and the T/C [3] was 97 % of control.

`Cc1ccc(S(=O)(=O)OCCC2=CCC3CC2C3(C)C)cc1` (stereo not given) was tested, and the T/C (dose: 100.0 mg/kg/injection, schedule: Q04DX002 (ip), vehicle: saline) was 103 % of control, the T/C (dose: 200.0 mg/kg/injection, schedule: Q04DX002 (ip), vehicle: saline) was 95 % of control and the T/C (dose: 400.0 mg/kg/injection, schedule: Q04DX002 (ip), vehicle: saline) was 95 % of control.

In the case of `CN=NC(C)(c1ccc(Cl)cc1)C(C)(N=NC)c1ccc(Cl)cc1` (stereo not given), the T/C (dose: 17.5 mg/kg/injection, schedule: Q01DX009 (ip), vehicle: Klucel (hydroxypropylcellulose) (HPC)) is reported as 92 % of control, the T/C (dose: 35.0 mg/kg/injection, schedule: Q01DX009 (ip), vehicle: Klucel (hydroxypropylcellulose) (HPC)) is reported as 103 % of control and the T/C (dose: 70.0 mg/kg/injection, schedule: Q01DX009 (ip), vehicle: Klucel (hydroxypropylcellulose) (HPC)) is reported as 100 % of control.

In the case of `O=C(O)CC(O)C(Cl)(Cl)Cl` (stereo not given), the T/C [7] is reported as 93 % of control, the T/C [8] is reported as 104 % of control and the T/C [9] is reported as 98 % of control.

In the case of `C=CCN(CC=C)P(=O)(OCC)OCC`, the T/C [13] is reported as 105 % of control, the T/C [14] is reported as 97 % of control and 100 % of control and the T/C [15] is reported as 112 % of control. The T/C (dose: 50.0 mg/kg/injection, schedule: Q01DX009 (ip), vehicle: saline) was 98 % of control and 105 % of control, the T/C (dose: 50.0 mg/kg/injection, schedule: Q04DX003 (ip), vehicle: saline) was 108 % of control and the T/C (dose: 100.0 mg/kg/injection, schedule: Q01DX009 (ip), vehicle: saline) was 104 % of control and 91 % of control. The T/C (dose: 100.0 mg/kg/injection, schedule: Q04DX003 (ip), vehicle: saline) was 105 % of control, the T/C (dose: 200.0 mg/kg/injection, schedule: Q01DX009 (ip), vehicle: saline) was 97 % of control and 92 % of control and the T/C (dose: 200.0 mg/kg/injection, schedule: Q04DX003 (ip), vehicle: saline) was 94 % of control.

`O=C(CCCNC(=O)OCc1ccccc1)NCCCCCCNCCCCCCNC(=O)CCCNC(=O)OCc1ccccc1` was tested, and the T/C [16] was 95 % of control, the T/C [7] was 95 % of control and the T/C [8] was 98 % of control. The T/C [9] was 98 % of control.

In the case of `CC(C)CCc1c(N)nc(NCCCc2ccccc2)nc1N`, the T/C (dose: 100.0 mg/kg/injection, schedule: Q01DX001 (ip), vehicle: Klucel (hydroxypropylcellulose) (HPC)) is reported as 91 % of control and the T/C (dose: 200.0 mg/kg/injection, schedule: Q01DX001 (ip), vehicle: Klucel (hydroxypropylcellulose) (HPC)) is reported as 103 % of control.

With `COc1cc(C)c2cc(C)cc(C)c2n1` the T/C [5] was 95 % of control, the T/C [6] was 101 % of control and the T/C (dose: 400.0 mg/kg/injection, schedule: Q01DX001 (ip), vehicle: other) was 93 % of control.

With `Nc1nc(-c2ccccc2)c(CCCOc2ccc(NC(=O)CBr)cc2)c(=O)[nH]1` the T/C [4] was 91 % of control, the T/C [1] was 96 % of control and the T/C [2] was 86 % of control. The T/C [3] was 86 % of control.

In the case of `c1ccc(-c2nn3c(-c4ccccc4)nnc3o2)cc1`, the T/C (dose: 66.0 mg/kg/injection, schedule: Q01DX009 (ip), vehicle: saline with Tween-80) is reported as 90 % of control, the T/C (dose: 100.0 mg/kg/injection, schedule: Q04DX003 (ip), vehicle: saline with Tween-80) is reported as 92 % of control and the T/C (dose: 150.0 mg/kg/injection, schedule: Q01DX009 (ip), vehicle: saline with Tween-80) is reported as 95 % of control. The T/C (dose: 200.0 mg/kg/injection, schedule: Q01DX009 (ip), vehicle: saline with Tween-80) was 90 % of control, the T/C (dose: 200.0 mg/kg/injection, schedule: Q04DX003 (ip), vehicle: saline with Tween-80) was 93 % of control and the T/C (dose: 400.0 mg/kg/injection, schedule: Q01DX009 (ip), vehicle: saline with Tween-80) was 164 % of control. The T/C (dose: 400.0 mg/kg/injection, schedule: Q04DX003 (ip), vehicle: saline with Tween-80) was 92 % of control.

For `Cc1ccc(NCC(=O)O)cc1`, the T/C (dose: 100.0 mg/kg/injection, schedule: Q01DX Z (ip), vehicle: methylcellulose (MC)) was 101 % of control and the T/C (dose: 200.0 mg/kg/injection, schedule: Q01DX Z (ip), vehicle: methylcellulose (MC)) was 101 % of control.

With `NC(=S)NNC(=O)/C=C/c1ccccc1` the T/C (dose: 100.0 mg/kg/injection, schedule: Q04DX003 (ip), vehicle: saline sonified) was 105 % of control, the T/C (dose: 200.0 mg/kg/injection, schedule: Q04DX003 (ip), vehicle: saline sonified) was 91 % of control and the T/C (dose: 400.0 mg/kg/injection, schedule: Q04DX003 (ip), vehicle: saline sonified) was 91 % of control.
